Measurements: ChEMBL document CHEMBL1152082, “Topographical requirements for delta opioid ligands: The synthesis and biological properties of a cyclic analogue of deltorphin I” (Bioorg Med Chem Lett, 1992)
Bridge positions count the residues as written; N and C are the ends. Square brackets hold non-standard residues; d marks the D form. Peptide text beside a SMILES is read from it.

How the values were obtained:
Mu-type opioid receptor [1] = molecular target: Mu-type opioid receptor (Rattus norvegicus, UniProt P33535); test: Binding affinity against Opioid receptor mu 1 with [3H]CTOP
Mu-type opioid receptor (Rattus norvegicus, UniProt P33535), sequence (P33535 whole entry): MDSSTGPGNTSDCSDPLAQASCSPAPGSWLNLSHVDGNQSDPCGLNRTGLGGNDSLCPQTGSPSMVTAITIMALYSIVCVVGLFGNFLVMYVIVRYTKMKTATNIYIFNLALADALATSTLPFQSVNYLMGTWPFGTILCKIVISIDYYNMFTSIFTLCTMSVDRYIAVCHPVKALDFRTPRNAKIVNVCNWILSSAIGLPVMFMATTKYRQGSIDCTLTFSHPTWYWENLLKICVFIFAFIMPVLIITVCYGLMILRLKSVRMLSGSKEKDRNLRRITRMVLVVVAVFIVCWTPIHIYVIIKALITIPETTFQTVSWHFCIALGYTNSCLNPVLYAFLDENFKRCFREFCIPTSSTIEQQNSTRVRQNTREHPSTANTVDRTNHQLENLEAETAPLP

[2] = molecular target: Delta-type opioid receptor (Rattus norvegicus, UniProt P33533); test: Binding affinity against delta receptor with [3H][p-Cl-Phe4]-DPDPE
Delta-type opioid receptor (Rattus norvegicus, UniProt P33533), sequence (P33533 whole entry): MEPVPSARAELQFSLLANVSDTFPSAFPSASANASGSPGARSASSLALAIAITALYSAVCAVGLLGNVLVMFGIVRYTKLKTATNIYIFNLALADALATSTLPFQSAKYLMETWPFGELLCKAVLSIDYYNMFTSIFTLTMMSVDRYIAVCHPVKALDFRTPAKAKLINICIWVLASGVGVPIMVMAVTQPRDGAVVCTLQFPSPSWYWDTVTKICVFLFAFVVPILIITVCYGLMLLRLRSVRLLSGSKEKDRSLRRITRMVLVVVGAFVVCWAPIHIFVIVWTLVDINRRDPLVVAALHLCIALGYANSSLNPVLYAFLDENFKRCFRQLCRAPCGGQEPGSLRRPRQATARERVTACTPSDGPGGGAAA

Mu-type opioid receptor [3] = molecular target: Mu-type opioid receptor (Cavia porcellus, UniProt P97266); test: Inhibitory activity against Guinea pig ileum smooth muscle; assay type: functional, tissue-based
Mu-type opioid receptor (Cavia porcellus, UniProt P97266), sequence (P97266 whole entry): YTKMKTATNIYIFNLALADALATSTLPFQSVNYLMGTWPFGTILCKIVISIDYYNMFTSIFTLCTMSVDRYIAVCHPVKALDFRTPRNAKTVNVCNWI

[4] = molecular target: Delta-type opioid receptor (Mus musculus, UniProt P32300); test: Inhibitory activity against Mouse vas deferens smooth muscle; assay type: functional, tissue-based, Muscle tissue
Delta-type opioid receptor (Mus musculus, UniProt P32300), sequence (P32300 whole entry): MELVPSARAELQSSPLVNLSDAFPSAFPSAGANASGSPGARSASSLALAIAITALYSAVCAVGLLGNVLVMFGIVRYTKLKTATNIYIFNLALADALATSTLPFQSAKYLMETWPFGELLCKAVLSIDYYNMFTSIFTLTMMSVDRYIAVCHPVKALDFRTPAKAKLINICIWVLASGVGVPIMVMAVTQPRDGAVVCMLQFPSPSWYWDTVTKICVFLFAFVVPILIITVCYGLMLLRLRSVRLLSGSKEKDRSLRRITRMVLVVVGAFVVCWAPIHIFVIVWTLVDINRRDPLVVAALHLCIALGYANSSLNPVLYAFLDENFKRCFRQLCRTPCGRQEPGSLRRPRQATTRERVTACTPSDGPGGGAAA

SMILES	IC50 (Mu-type opioid receptor [1]) [nM]	IC50 [2] [nM]	IC50 (Mu-type opioid receptor [3]) [nM]	IC50 [4] [nM]
CC(NC(=O)[C@@H](N)Cc1ccc(O)cc1)C(=O)N[C@@H](Cc1ccccc1)C(=O)N[C@@H](CC(=O)O)C(=O)N[C@H](C(=O)N[C@H](C(=O)NCC(N)=O)C(C)C)C(C)C (single isomer, unassigned) [DELTORPHIN C]	2140	0.6	2.89	
CC(C)[C@H](NC(=O)[C@@H]1CSSC[C@@H](NC(=O)[C@@H](N)Cc2ccc(O)cc2)C(=O)N[C@@H](Cc2ccccc2)C(=O)N[C@@H](CC(=O)O)C(=O)N1)C(=O)NCC(N)=O (H-Y[dC]FDCVG-NH2; disulfide 2-5)	5.15	0.87	2.98	0.23
